Laboratory results as given in patent EP0243717A1 (priority 1986, dated 1987).
Converted amounts (≈) assume the structure as drawn. “And” between values parts separate entries of the source, which are not always exact repeats. Identical values can stand only once. Like-named read-outs stand apart in the source and are kept apart here.

Columns and labels:
T. hyo = assay: Example 7: induced swine dysentery trial, drug in feed; format: in vivo, pigs; conditions: for No. Pig Days with General Appearance Score of: 1 / No. Pig Days with Hydration Score of: 1: 1 = Normal; for No. Pig Days with General Appearance Score of: 2: 2 = Depressed; for No. Pig Days with General Appearance Score of: 3: 3 = Moribund; for No. Pig Days with General Appearance Score of: 4: 4 = Dead; for No. Pig Days with Hydration Score of: 2: 2 = mild; for No. Pig Days with Hydration Score of: 3: 3 = moderate; for No. Pig Days with Hydration Score of: 4: 4 = severe
Method: The test is conducted using 40 crossbred pigs approximately 6 weeks of age, weighing 12.8 kg at receipt. Pigs are assigned to one of the treatments outlined in the Table below, stratified by body weight and sex, and randomly assigned to pens within a randomized block design. Sexes intermixed within pens and proportioned among treatment groups. Treatments groups are randomly assigned to pens within experimental blocks to alleviate location variables (see Table 9). Each treatment group consists of two replicate pens with five pigs per pen.
All pigs are adjusted to the test facility for four days prior to their challenge with 100 ml of T. hvodvsenteriae (T. hvo) broth culture. Respective treatment diets are provided 1 hr postchallenge and continued ad libitum for three weeks followed by a two week nonmedicated period. Clinical signs are noted and recorded for each pig each day postchallenge.
Pigs are challenged on day 5 and then provided respective treatment diets immediately postchallenge for a 21-day period followed by a 14-day nonmedication period.
Pigs are challenged on day 5 and then provided respective treatment diets immediately postchallenge for a 21-day period followed by a 14-day nonmedicated period.

[1] = tested on: piricularia oryzae KF 180; assay: microbe, parasite or virus in culture; format: cell-based
Xanthomonas oryzae KB 88 = assay: microbe, parasite or virus in culture; format: cell-based
[2] = tested on: Peptococcus variabilis KB 235 (ATCC 14955); format: cell-based; conditions: Medium B
Excerpt: (§1) For reference, the minimum growth inhibition concentrations (MIC) to various bacteria of above five drugs and Lankacidin C are shown in Table 3.

[3] = tested on: Bcteroides fragilis KB 169 (ATCC 23745); format: cell-based; conditions: Medium B
Excerpt: as §1

[4] = tested on: Clostridium perfringens KB 129 (ATCC 3624); assay: microbe, parasite or virus in culture; format: cell-based
Treponema hyodysenteriae [5] = format: in vivo, pigs
Treponema hyodysenteriae [6] = format: in vivo, pigs; remark: listed apart in the source
[7] = Treatment C, 50 g/ton Carbadox, Total
[8] = Treatment C, 50 g/ton Carbadox, per pen (2, 7)
[9] = Clostridium perfringens, ATCC3624
[10] = Treatment A, 20 g/ton hygromycin A, Total
[11] = Treatment A, 20 g/ton hygromycin A, per pen (1, 4)
[12] = Treatment B, 10 g/ton hygromycin A, Total
[13] = Treatment B, 10 g/ton hygromycin A, per pen (5, 8)
[14] = Treatment C, 50 g/ton hygromycin A, Total
[15] = Treatment C, 50 g/ton hygromycin A, per pen (2, 7)
[16] = Group III, 5 additional healthy pigs penned with the treated pigs
[17] = Group III, second line of 5 pigs (additional healthy pigs)
[18] = […], 0 normal, 1 diarrhea, 2 feces cruentae

## COC(=O)N/N=C/c1c[n+]([O-])c2ccccc2[n+]1[O-] [Carbadox, carbadox, reference compound]
T. hyo; [7]
  No. Pig Days with General Appearance Score of: 1: 349 pig days
  No. Pig Days with General Appearance Score of: 2: 1 pig days
  No. Pig Days with General Appearance Score of: 3: 0 pig days
  No. Pig Days with General Appearance Score of: 4: 0 pig days
T. hyo; [8]
  No. Pig Days with General Appearance Score of: 1: 174 pig days and 175 pig days
  No. Pig Days with General Appearance Score of: 3: 0 pig days
  No. Pig Days with General Appearance Score of: 4: 0 pig days

## C=C[C@]1(C)C[C@@H](OC(=O)CSCCN(CC)CC)[C@]2(C)[C@H](C)CC[C@]3(CCC(=O)[C@H]32)[C@@H](C)[C@@H]1O [Dynamutilin, tiamulin]
[1]
  MIC: > 100 µg/mL
Xanthomonas oryzae KB 88; Xanthomonas oryzae, KB88
  MIC: < 3.12 µg/mL
[2]; read-out: MIC
  MIC: 0.4 µg/mL (≈ 0.81 µM)
[3]; read-out: MIC
  MIC: < 0.2 µg/mL
[4]; [9]
  MIC: 0.78 µg/mL (≈ 1.58 µM)

## CC(=O)[C@H]1O[C@@H](Oc2ccc(/C=C(\C)C(=O)N[C@@H]3[C@H](O)[C@@H](O)[C@H]4OCO[C@H]4[C@@H]3O)cc2O)[C@@H](O)[C@@H]1O [Hygromycin A, hygromycin A]
T. hyo; [10]
  No. Pig Days with General Appearance Score of: 1: 349 pig days
  No. Pig Days with General Appearance Score of: 2: 1 pig days
  No. Pig Days with Hydration Score of: 2: 0 pig days
  No. Pig Days with General Appearance Score of: 3: 0 pig days
  No. Pig Days with Hydration Score of: 3: 0 pig days
  No. Pig Days with General Appearance Score of: 4: 0 pig days
  No. Pig Days with Hydration Score of: 4: 0 pig days
T. hyo; [11]
  No. Pig Days with General Appearance Score of: 1: 174 pig days and 175 pig days
  No. Pig Days with Hydration Score of: 2: 0 pig days
  No. Pig Days with General Appearance Score of: 3: 0 pig days
  No. Pig Days with Hydration Score of: 3: 0 pig days
  No. Pig Days with General Appearance Score of: 4: 0 pig days
  No. Pig Days with Hydration Score of: 4: 0 pig days
T. hyo; Treatment A, 20 g/ton, Total
  No. Pig Days with Hydration Score of: 1: 350 pig days
T. hyo; Treatment A, 20 g/ton, per pen (1, 4)
  No. Pig Days with Hydration Score of: 1: 175 pig days
T. hyo; [12]
  No. Pig Days with General Appearance Score of: 1: 349 pig days
  No. Pig Days with General Appearance Score of: 2: 1 pig days
  No. Pig Days with Hydration Score of: 2: 4 pig days
  No. Pig Days with General Appearance Score of: 3: 0 pig days
  No. Pig Days with Hydration Score of: 3: 0 pig days
  No. Pig Days with General Appearance Score of: 4: 0 pig days
  No. Pig Days with Hydration Score of: 4: 0 pig days
T. hyo; [13]
  No. Pig Days with General Appearance Score of: 1: 175 pig days and 174 pig days
  No. Pig Days with Hydration Score of: 2: 2 pig days
  No. Pig Days with General Appearance Score of: 3: 0 pig days
  No. Pig Days with Hydration Score of: 3: 0 pig days
  No. Pig Days with General Appearance Score of: 4: 0 pig days
  No. Pig Days with Hydration Score of: 4: 0 pig days
T. hyo; Treatment B, 10 g/ton, Total
  No. Pig Days with Hydration Score of: 1: 346 pig days
T. hyo; Treatment B, 10 g/ton, per pen (5, 8)
  No. Pig Days with Hydration Score of: 1: 173 pig days
T. hyo; [14]
  No. Pig Days with Hydration Score of: 2: 3 pig days
  No. Pig Days with Hydration Score of: 3: 0 pig days
  No. Pig Days with Hydration Score of: 4: 0 pig days
T. hyo; [15]
  No. Pig Days with Hydration Score of: 2: 2 pig days and 1 pig days
  No. Pig Days with Hydration Score of: 3: 0 pig days
  No. Pig Days with Hydration Score of: 4: 0 pig days
T. hyo; Treatment C, printed 50 g/ton, Total
  No. Pig Days with Hydration Score of: 1: 347 pig days
T. hyo; Treatment C, printed 50 g/ton, per pen (2, 7), row
  No. Pig Days with Hydration Score of: 1: 173 pig days and 174 pig days
Treponema hyodysenteriae [5]; [16]
  Average diarrhea index During observation: 0
  Change in morbidity ( %) Commencement of observation: 0%
  Change in morbidity ( %) During observation: 0%
  Mortality (%): 0%
Treponema hyodysenteriae [5]; Group III, 5 infected treated pigs
  Mortality (%): 0%
Treponema hyodysenteriae [5]; [17]
  Pathogen Detection Rate (%) Commencement of observation: 0%
  Pathogen Detection Rate (%) During observation: 0%
Treponema hyodysenteriae [5]; Group III, during the observation period
  attack of the disease in infected pigs or healthy pigs: no attack of the disease is observed
Treponema hyodysenteriae [5]; Group III, during the therapeutic period and at the starting time of observation
  swine dysentery symptoms of infected pigs: no swine dysentery symptoms
Treponema hyodysenteriae [5]; [18]
  Average diarrhea index pre-medication: 0
Treponema hyodysenteriae [5]; pig, in vivo
  Average diarrhea index During medication: 0
  Average diarrhea index During observation: 0
  Change in morbidity ( %) Commencement of observation: 0%
  Change in morbidity ( %) During medication: 0/5
  Change in morbidity ( %) During observation: 0%
  Pathogen Detection Rate (%) Commencement of observation: 0%
  Pathogen Detection Rate (%) During medication: 0%
  Pathogen Detection Rate (%) During observation: 0%
  Pathogen Detection Rate (%) pre-infection: 0%
[1]
  MIC: >100 µg/mL
Treponema hyodysenteriae [6]; Group III, hygromycin A 0.5mg/liter drinking water, rectal swabs
  Pathogen Detection Rate (%) During medication days 31 to 120: 0/12
Treponema hyodysenteriae [6]; Group III: infected, hygromycin A 0.5mg/liter drinking water
  Mortality: 0
Treponema hyodysenteriae [6]; Group III, after end of medication, rectal swabs
  Pathogen Detection Rate (%) Withdrawal days 31 to 120: 0/12
Treponema hyodysenteriae [6]; Group III, rectal swabs
  Pathogen Detection Rate (%) Post infecting days 1 to 3 Before medication: 10/12
  Pathogen Detection Rate (%) Prein-fecting: 0%
Treponema hyodysenteriae [6]; [18]
  Average diarrhea index During medication: 0.22
  Average diarrhea index Pre-medication: 0
Treponema hyodysenteriae [6]; […], necropsy after the experiment
  Gross pathological examination of the colon: normal
Treponema hyodysenteriae [6]; pig, in vivo
  Change in morbidity (%) Third day: 0%
  Change in morbidity (%) Thirtieth day: 0%
Xanthomonas oryzae KB 88; Medium E
  MIC: 50 µg/mL (≈ 97.8 µM)
[3]
  MIC: 50 µg/mL (≈ 97.8 µM)
[4]; Medium B
  MIC: 6.25 µg/mL (≈ 12.2 µM)

## CC(=O)C(=O)N[C@@H]1/C=C(C)/C=C/[C@@H](O)C/C=C(C)/C=C/[C@@H](O)C[C@H]2OC(=O)[C@]1(C)C(=O)[C@@H]2C [Lankacidin C]
[1]
  MIC: >100 µg/mL
Xanthomonas oryzae KB 88; Medium E
  MIC: < 3.12 µg/mL
[2]
  MIC: 0.4 µg/mL (≈ 0.87 µM)
[3]
  MIC: 0.78 µg/mL (≈ 1.7 µM)
[4]; Medium B
  MIC: 3.12 µg/mL (≈ 6.79 µM)

## CCC[C@@H]1C[C@@H](C(=O)N[C@@H]([C@H]2O[C@H](SC)[C@H](O)[C@@H](O)[C@H]2O)[C@@H](C)O)N(C)C1 [Lincomycin]
[1]
  MIC: > 100 µg/mL
Xanthomonas oryzae KB 88; Xanthomonas oryzae, KB88
  MIC: > 100 µg/mL
[2]; read-out: MIC
  MIC: 0.78 µg/mL (≈ 1.92 µM)
[3]; read-out: MIC
  MIC: 0.4 µg/mL (≈ 0.984 µM)
[4]; [9]
  MIC: 0.4 µg/mL (≈ 0.984 µM)
